# Assay results published in patent publication US6921770B2 (priority 2000, dated 2005).
# Like-named read-outs stand apart in the source and are kept apart here.
# Columns and labels:
# rice blast fungi [1] = format: in vivo, Pyricularia grisea
# rice blast fungi [2] = format: cell-based, Magnaporthe grisea
# rice blast fungi [3] = format: cell-based, Magnaporthe grisea; settings: 5 μg/ml
# Sprague-Dawley rats = settings: rat, in vivo
# Pyricularia grisea = format: in vivo
# [4] = test system: Salmonella typhimurium TA100 and TA98
# Oryzias latipes = settings: in vivo
SMILES,Inhibiting Ratio (%) (at 250 ppm) (rice blast fungi [1]),concentration at which the accumulation of melanin in the appressorium is inhibited (rice blast fungi [2]),color of the medium (rice blast fungi [3]),body weight (Sprague-Dawley rats),dead animals (Sprague-Dawley rats),general symptoms (Sprague-Dawley rats),postmortem examination (Sprague-Dawley rats),minimal lethal dose (Sprague-Dawley rats; po),controlling effect on rice blast (Pyricularia grisea; 2 ppm) [%],controlling effect on rice blast (Pyricularia grisea; 10 ppm) [%],controlling effect on rice blast (Pyricularia grisea; 100 ppm) [%],bacterial reverse mutation [4],colony number in the group treated with the test material [4],Accumulated number of dead animals (Oryzias latipes),acute toxicity value (Oryzias latipes) [mg/L]
"Br.Cn1c(CC(=O)Nc2ccccc2)csc1=Nc1cc(Cl)cc(Cl)c1 [Compound 5, 2-(3,5-dichlorophenylimino)-3-methyl-4-(N-phenylcarbamoylmethyl)-1,3-thiazol-4-ine hydrobromide]",100,above 10 μg/ml,white,–,–,–,–,–,–,–,–,–,–,–,–
"COc1ccc(NC(=O)Cc2csc(=Nc3ccccc3F)n2C)cc1.Cl [Compound 204, 2-(2-fluorophenylimino)-3-methyl-4-[N-(4-methoxyphenyl)carbamoylmethyl]-1,3-thiazol-4-ine hydrochloride]",97,–,–,Normal weight gain,not observed,Any abnormal observations were made,does not show any abnormal conservation,higher than 2500 mg/kg,83,95,97,does not cause bacterial reverse mutation,less than twice of that in the negative control group,0,> 100
